Measured values taken from patent US5916906A, “Compositions comprising nicotinylalanine and an inhibitor of glycine conjugation or vitamin B6” (priority 1997, dated 1999).
Where “and” joins values, the source holds several entries; their conditions need not be identical. Equal entries are not always repeated.

Key:
Type in all cases: in vivo, C57BL/6 mice
LP-BM5 MuLV Retrovirus [1] = assay: MAIDS model, interim sacrifices: body weight, disease score, spleen weight; conditions: for Body Wt. / Spleen Wt.: individual mouse; for Disease Score: scores 0 through +4, individual mouse
Procedure: (§1) This study was designed to determine whether nicotinylalanine (NAL) alone or in combination with acetylsalicylic acid (ASA) will prevent or alter the course of murine retroviral-induced immunodeficiency disease, MAIDS, in C57BL/6 female mice. The LP-BM5 MuLV virus used for these studies was prepared from chronically infected SC-1 cells (ATCC Cat. No. CRL-1404), as described by Yetter R. A. et al., J. Exp. Med., 168, 623-635, 1988. […] The MAIDS model is well characterized and reproducible in the laboratory, as described by Mosier D. E. et al., J. Exp. Med. 161, 766-784, 1985.
(§2) Measures of disease progression followed the methods developed by Eiseman et al., 1991 (Ibid). Disease scores 0 through +4 are based upon body weight gain and palpable alterations in the size of lymph nodes and spleen. Severity of disease is scored as follows: 0.5, increased body weight and variably detected increase in size of any one lymph node or spleen; +1, clearly detectable increase in the size of a lymph node and spleen; +2, readily detectable (greater than 0.3 cm in diameter) increased size in more than one lymph node and, in particular, enlargement of subcervical, brachial or axillary nodes; +3, increased size of all palpable nodes and palpable splenomegaly (≥0.3 grams); +4, advanced disease with extensive splenomegaly (>1.0 grams) and lymphadenopathy.
(§3) Specific pathogen free, female C57BL/6 mice (5 weeks of age) were purchased from Charles River Breeding Laboratories. All mice were allowed one week to acclimate to housing facilities prior to randomization for study. Animals were marked for identification and placed in microisolator cages with identifying cards (5 mice/cage), where autoclaved food and water were provided ad libitum.
(§4) NAL and ASA were formulated under sterile conditions according to preformulation methods outlined in Remington's Pharmaceutical Sciences Handbook, 18th Edition, 1990, ibid). NAL and ASA were dissolved in sterile phosphate-buffered normal saline solution (i.e., vehicle; Biofluids Inc., Lot 413054), adjusted to between pH 7.2 to 7.4 with […], sterilized by filtration through 0.2 μm bottle-type filters, and dispersed into sterile glass vials, sealed and capped (Wheaton Inc.).
(§5) Except for Group 6 (which began treatment 2 weeks after virus inoculation),test drug injections began 1 day after virus infection and continued every day except weekends (i.e., 5 times per week).
Disease progression was monitored by measuring serum IgM levels by ELISA on all animals at monthly intervals during the course of disease. Three mice per group were randomly selected and sacrificed at monthly intervals (end of month one through four) of the study. Disease scores for each animal were recorded weekly based upon palpation of lymph nodes and spleen. Complete gross necropsies were performed on these euthanized animals and the ratio of recorded spleen to body weights was an additional indicator of diseases progression. […] Infection was quantified by ecotropic virus XC plaque assays of spleens removed from the interim sacrificed animals.

LP-BM5 MuLV Retrovirus [2] = assay: MAIDS model: disease stage score, attainment of disease score 4 (Kaplan-Meier) and survival up to 28 weeks
Excerpt: Each value represents the mean and one standard standard deviation for groups of surviving mice (at least 4 mice per group) at termination of the study, following 28 weeks post-inoculation by LP-BM5 virus.
(§6) Each group consisted of 8 mice, except for the virus-negative control group which consisted of 6 mice.
as §6, §1, §2, §3, §4, §5

LP-BM5 Retrovirus = assay: Ecotropic virus XC plaque assay on spleen cells of treated LP-BM5 infected mice; conditions: for Virus titer, plaques per million spleen cells: four months after inoculation, mean ± standard deviation, NAL 400 mg/kg
Excerpt: FIG. 4A and 4B: Mean Number of Virus Particles as Determined from Plaques per Million Spleen Cells from Serially Sacrificed Mice at Monthly Intervals After Inoculation with LP-BM5 Retrovirus. […] Each ml of the virus pool contained 3.66 log PFU ecotropic virus as determined by XC Plaque Assay. Treatment in all groups began one day after virus inoculation, except for the NAL 400 Delay Group which began treatment two weeks after virus inoculation. Groups and treatments are as follows:
FIG. 4B: LP-BM5+PBS=as described above; NAL 400=virus positive, plus daily (M-F) i.p. injections of nicotinylalanine (400 mg/kg) only; NAL 400 delay=nicotinylalanine (400 mg/kg) only, injected i.p. daily (M-F) beginning two weeks after virus inoculation.
Ecotropic virus titers were determined using the XC plaque assay (Yetter R. A. et al., J. Exp. Med., 168, 623-635, 1988) and were performed on spleen cells cultured from all serially killed mice at the interim sacrifices as shown in Tables 2-A & 2-B). Spleens were weighed and cells were extruded with sterile media (RPMI 1640, with gentamycin and 10% fetal calf serum). Serial 10-fold dilutions were made and one ml of each dilution was overlayered onto a monolayer of SC-1 cells treated with 4 μg/ml polybrene. After 24 hours, the media was removed and washed and the SC-1 cells were fed with fresh media. When the monolayer was confluent, the plates were irradiated with UV light at 60 ergs/mm^2 /sec and overlayered with XC cells. When the XC cell layer was confluent, the plates were fixed with methanol and stained with Giemsa Stain. Plaques were counted on an Artek colony counter and confirmed by phase contrast microscopy. Values presented in FIG. 4A represent the mean of adjusted samples at three dilutions expressed as plaques per million spleen cells. Mean and standard deviations corresponding to each of the data points in FIGS. 4A and 4B are derived from three mice serially killed at interim sacrifice times.

[3] = 1 month postinoculation, treatment from day 1: NAL 400 mg/kg i.p., ASA 20 mg/kg i.p., AZT 1 mg/ml in drink water
[4] = 2 months postinoculation, treatment from day 1: NAL 400 mg/kg i.p., ASA 20 mg/kg i.p., AZT 1 mg/ml in drink water
[5] = 3 months postinoculation, treatment from day 1: NAL 400 mg/kg i.p., ASA 20 mg/kg i.p., AZT 1 mg/ml in drink water
[6] = 4 months postinoculation, treatment from day 1: NAL 400 mg/kg i.p., ASA 20 mg/kg i.p., AZT 1 mg/ml in drink water
[7] = 1 month postinoculation, NAL 200 mg/kg i.p. (no ASA)
[8] = 1 month postinoculation, NAL 400 mg/kg i.p., delayed Rx 2 weeks
[9] = 2 months postinoculation, NAL 200 mg/kg i.p. (no ASA)
[10] = 2 months postinoculation, NAL 400 mg/kg i.p., delayed Rx 2 weeks
[11] = 3 months postinoculation, NAL 400 mg/kg i.p., delayed Rx 2 weeks
[12] = 4 months postinoculation, NAL 400 mg/kg i.p., delayed Rx 2 weeks
[13] = NAL 400 mg/kg delayed by two weeks, FIG. 5

SMILES: Cc1cn([C@H]2C[C@H](N=[N+]=[N-])[C@@H](CO)O2)c(=O)[nH]c1=O [AZT, 3'azido-3'deoxythymidine, reference compound]
- Body Wt. (LP-BM5 MuLV Retrovirus [1]; [3]): 21.1 Grams and 20.9 Grams and 19.6 Grams
- Spleen Wt. (LP-BM5 MuLV Retrovirus [1]; [3]): 0.097 Grams and 0.108 Grams and 0.096 Grams
- Disease Score (LP-BM5 MuLV Retrovirus [1]; [3]): 0 and 0.5
- Body Wt. (LP-BM5 MuLV Retrovirus [1]; [4]): 20.9 Grams and 20.0 Grams and 22.6 Grams
- Spleen Wt. (LP-BM5 MuLV Retrovirus [1]; [4]): 0.090 Grams and 0.104 Grams and 0.086 Grams
- Disease Score (LP-BM5 MuLV Retrovirus [1]; [4]): 0
- Body Wt. (LP-BM5 MuLV Retrovirus [1]; [5]): 23.8 Grams and 23.5 Grams and 25.4 Grams
- Spleen Wt. (LP-BM5 MuLV Retrovirus [1]; [5]): 0.118 Grams and 0.114 Grams and 0.112 Grams
- Disease Score (LP-BM5 MuLV Retrovirus [1]; [5]): 0.5
- Body Wt. (LP-BM5 MuLV Retrovirus [1]; [6]): 25.0 Grams and 21.1 Grams and 28.6 Grams
- Spleen Wt. (LP-BM5 MuLV Retrovirus [1]; [6]): 0.262 Grams and 0.086 Grams and 0.150 Grams
- Disease Score (LP-BM5 MuLV Retrovirus [1]; [6]): 2 and 0 and 1
- Disease score of mice that died prior to termination (LP-BM5 MuLV Retrovirus [2]; Groups 4 and 7): 0.5
- Survival vs LP-BM5 virus-positive control (log-rank p) (LP-BM5 MuLV Retrovirus [2]; treatment from day 1, FIG. 6): 0.0308
- Virus titer, plaques per million spleen cells (LP-BM5 Retrovirus; ASA 20 mg/kg, AZT 1 mg/mL): 333±495 plaques per million spleen cells
- Mice with detectable virus (plaques) in spleens (LP-BM5 Retrovirus; four months, AZT with or without 400 mg/kg NAL): two of the mice

SMILES: NC(CC(=O)c1cccnc1)C(=O)O (racemic) [NAL, γ-(3-pyridyl)-γ-oxo-α-aminobutyrate]
- Body Wt. (LP-BM5 MuLV Retrovirus [1]; [7]): 21.9 Grams and 21.8 Grams and 23.4 Grams
- Spleen Wt. (LP-BM5 MuLV Retrovirus [1]; [7]): 0.080 Grams and 0.257 Grams and 0.123 Grams
- Body Wt. (LP-BM5 MuLV Retrovirus [1]; [8]): 20.4 Grams and 20.5 Grams and 22.3 Grams
- Spleen Wt. (LP-BM5 MuLV Retrovirus [1]; [8]): 0.103 Grams and 0.151 Grams and 0.136 Grams
- Body Wt. (LP-BM5 MuLV Retrovirus [1]; [3]): 21.3 Grams and 20.4 Grams and 19.6 Grams
- Spleen Wt. (LP-BM5 MuLV Retrovirus [1]; [3]): 0.186 Grams and 0.309 Grams and 0.159 Grams
- Disease Score (LP-BM5 MuLV Retrovirus [1]; [7]): 0 and 1 and 0.5
- Disease Score (LP-BM5 MuLV Retrovirus [1]; [8]): 0 and 0.5
- Disease Score (LP-BM5 MuLV Retrovirus [1]; [3]): 1
- Body Wt. (LP-BM5 MuLV Retrovirus [1]; [9]): 22.5 Grams and 23.8 Grams and 22.2 Grams
- Spleen Wt. (LP-BM5 MuLV Retrovirus [1]; [9]): 0.229 Grams and 0.098 Grams and 0.302 Grams
- Body Wt. (LP-BM5 MuLV Retrovirus [1]; [10]): 21.2 Grams and 20.0 Grams and 26.6 Grams
- Spleen Wt. (LP-BM5 MuLV Retrovirus [1]; [10]): 0.168 Grams and 0.086 Grams and 0.320 Grams
- Body Wt. (LP-BM5 MuLV Retrovirus [1]; [4]): 21.6 Grams and 24.0 Grams
- Spleen Wt. (LP-BM5 MuLV Retrovirus [1]; [4]): 0.289 Grams and 0.216 Grams and 0.125 Grams
- Disease Score (LP-BM5 MuLV Retrovirus [1]; [9]): 1 and 0.5 and 2
- Disease Score (LP-BM5 MuLV Retrovirus [1]; [10]): 1 and 0 and 2
- Disease Score (LP-BM5 MuLV Retrovirus [1]; [4]): 1 and 2
- Body Wt. (LP-BM5 MuLV Retrovirus [1]; [11]): 23.8 Grams and 25.3 Grams and 26.3 Grams
- Spleen Wt. (LP-BM5 MuLV Retrovirus [1]; [11]): 0.090 Grams and 0.112 Grams and 0.175 Grams
- Body Wt. (LP-BM5 MuLV Retrovirus [1]; [5]): 23.6 Grams and 22.3 Grams and 24.6 Grams
- Spleen Wt. (LP-BM5 MuLV Retrovirus [1]; [5]): 0.112 Grams and 0.341 Grams and 0.086 Grams
- Disease Score (LP-BM5 MuLV Retrovirus [1]; [11]): 0 and 0.5 and 1
- Disease Score (LP-BM5 MuLV Retrovirus [1]; [5]): 0.5 and 2
- Body Wt. (LP-BM5 MuLV Retrovirus [1]; [12]): 26.8 Grams and 27.5 Grams and 24.5 Grams
- Spleen Wt. (LP-BM5 MuLV Retrovirus [1]; [12]): 0.399 Grams and 0.157 Grams and 0.083 Grams
- Body Wt. (LP-BM5 MuLV Retrovirus [1]; [6]): 27.6 Grams and 28.0 Grams and 25.5 Grams
- Spleen Wt. (LP-BM5 MuLV Retrovirus [1]; [6]): 0.119 Grams and 1.030 Grams and 0.240 Grams
- Disease Score (LP-BM5 MuLV Retrovirus [1]; [12]): 3 and 1 and 0.5
- Disease Score (LP-BM5 MuLV Retrovirus [1]; [6]): 0.5 and 4 and 2
- Survival vs LP-BM5 virus-positive control (log-rank p) (LP-BM5 MuLV Retrovirus [2]; NAL 400 mg/kg after two week delay, FIG. 6): 0.2492
- Retardation of disease progression (score +4), Log-Rank p (LP-BM5 MuLV Retrovirus [2]; [13]): 0.0469
- Retardation of disease progression (score +4), Wilcoxon p (LP-BM5 MuLV Retrovirus [2]; [13]): 0.0258
- Survival vs vehicle-injected control (Wilcoxon p) (LP-BM5 MuLV Retrovirus [2]; NAL 400 mg/kg delayed by two weeks, FIG. 6): 0.1756
- Survival vs LP-BM5 virus-positive control (log-rank p) (LP-BM5 MuLV Retrovirus [2]; treatment from day 1, FIG. 6): 0.9621
- Virus titer, plaques per million spleen cells (LP-BM5 Retrovirus; ASA 20 mg/kg, AZT 1 mg/mL): 3,410±4,606 plaques per million spleen cells
- Virus titer, plaques per million spleen cells (LP-BM5 Retrovirus; delayed two weeks): 796±463 plaques per million spleen cells
